Entries after “also recorded” stand apart in the source; their conditions may differ.
Key:
[1] = molecular target: T1, MD-2 (Homo sapiens, UniProt Q9Y6Y9); settings: prevents association with TLR-4; cited from earlier work
T1 sequence (Q9Y6Y9 19-160): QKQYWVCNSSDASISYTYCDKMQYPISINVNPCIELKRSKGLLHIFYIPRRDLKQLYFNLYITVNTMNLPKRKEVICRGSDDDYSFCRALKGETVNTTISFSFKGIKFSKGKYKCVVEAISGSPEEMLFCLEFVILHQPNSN

[2] = system: RAW264.7 murine macrophage cells; assay: TNFα production with TLR agonists in RAW264.7 macrophages, POPG treatment; assay type: cell-based; settings: TLR agonist stimulated RAW264.7 cells, after 24 h of POPG treatment, FIG. 1
Description: (§1) The Journal of Biological Chemistry 294, 4282 […]; Numata, M. & Voelker, D. R. Anti-inflammatory and anti-viral actions of anionic pulmonary surfactant phospholipids. Biochimica et Biophysica Acta (BBA)—Molecular and CEll Biology of Lipids 1867, 159139 (2022) Mueller, M., Brandenburg, K., Dedrick, R., Schromm, A. B. & Seydel, U. Phospholipids Inhibit Lipopolysaccharide (LPS)-Induced Cell Activation: A Role for LPS-Binding Protein. The Journal of Immunology 174, 1091-1096 (2005); K, K. et al. Anionic pulmonary surfactact phospholipids inhibit inflammatory response from alveolar macrophages and U937 cells by binding the lipopolysaccharide-interacting proteins CD14 and MD-2. J Biol Chem 284, 25488-25500 (2009)]. MD-2 and CD14 are molecular components that are responsible for facilitating the downstream intracellular signaling of TLR4 mediated inflammation. POPG binding to MD-2 and CD-14 will disrupt the downstream TLR signaling and prevent the inflammatory response [Berger, M. de Boer, J. D, van der Poll, T., Sterk, P. J. & van der Zee, J. S. Local coagulation activation following bronchial instillation of house dust mite allergen (HDM) and HDM/Lipopolysaccharide (LPS) in mild asthmatics. European Respiratory Journal 40. (2012)].

[3] = molecular target: T2, CD14 (Homo sapiens, UniProt P08571); settings: prevents association with TLR-4; cited from earlier work
T2 sequence (P08571 20-345): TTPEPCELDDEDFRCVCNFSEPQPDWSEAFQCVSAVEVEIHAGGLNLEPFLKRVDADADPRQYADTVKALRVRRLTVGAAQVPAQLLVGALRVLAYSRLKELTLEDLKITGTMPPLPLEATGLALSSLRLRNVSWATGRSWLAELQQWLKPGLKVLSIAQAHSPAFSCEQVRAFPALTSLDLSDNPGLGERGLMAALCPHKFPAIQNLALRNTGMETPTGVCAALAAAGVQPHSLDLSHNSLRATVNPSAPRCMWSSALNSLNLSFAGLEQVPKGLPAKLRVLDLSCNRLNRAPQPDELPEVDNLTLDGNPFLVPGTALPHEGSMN

[4] = system: IL8; assay: Suppression of inflammation mediated by IL8 (data not shown)
Description: as §1

**Q.** What does the source list for `CCCCCCCC/C=C\CCCCCCCC(=O)O[C@H](COC(=O)CCCCCCCCCCCCCCC)COP(=O)(O)OCC(O)CO` (stereo partly shown) [POPG, palmitoyloleoylphosphatidylglycerol]?
**A.** binding to MD-2 [1]: preferentially bind; TNFα production [2]: reduces TNFα production; also recorded: suppression of inflammation mediated by TNFα; binding to CD14 [3]: preferentially bind; suppression of inflammation mediated by IL8 [4]: suppression of inflammation
